{"source": "ChEMBL document CHEMBL5584224", "about": "“Recent advances in c-Met-based dual inhibitors in the treatment of cancers” (Eur J Med Chem, 2024)", "key": {"[1]": {"system": "HCC827", "experiment": "Antiproliferative activity against human HCC827 cells", "type": "functional, cell-based"}, "[2]": {"biological_target": "T1, Tyrosine-protein kinase receptor UFO (Homo sapiens, UniProt P30530)", "T1 sequence (P30530 whole entry)": "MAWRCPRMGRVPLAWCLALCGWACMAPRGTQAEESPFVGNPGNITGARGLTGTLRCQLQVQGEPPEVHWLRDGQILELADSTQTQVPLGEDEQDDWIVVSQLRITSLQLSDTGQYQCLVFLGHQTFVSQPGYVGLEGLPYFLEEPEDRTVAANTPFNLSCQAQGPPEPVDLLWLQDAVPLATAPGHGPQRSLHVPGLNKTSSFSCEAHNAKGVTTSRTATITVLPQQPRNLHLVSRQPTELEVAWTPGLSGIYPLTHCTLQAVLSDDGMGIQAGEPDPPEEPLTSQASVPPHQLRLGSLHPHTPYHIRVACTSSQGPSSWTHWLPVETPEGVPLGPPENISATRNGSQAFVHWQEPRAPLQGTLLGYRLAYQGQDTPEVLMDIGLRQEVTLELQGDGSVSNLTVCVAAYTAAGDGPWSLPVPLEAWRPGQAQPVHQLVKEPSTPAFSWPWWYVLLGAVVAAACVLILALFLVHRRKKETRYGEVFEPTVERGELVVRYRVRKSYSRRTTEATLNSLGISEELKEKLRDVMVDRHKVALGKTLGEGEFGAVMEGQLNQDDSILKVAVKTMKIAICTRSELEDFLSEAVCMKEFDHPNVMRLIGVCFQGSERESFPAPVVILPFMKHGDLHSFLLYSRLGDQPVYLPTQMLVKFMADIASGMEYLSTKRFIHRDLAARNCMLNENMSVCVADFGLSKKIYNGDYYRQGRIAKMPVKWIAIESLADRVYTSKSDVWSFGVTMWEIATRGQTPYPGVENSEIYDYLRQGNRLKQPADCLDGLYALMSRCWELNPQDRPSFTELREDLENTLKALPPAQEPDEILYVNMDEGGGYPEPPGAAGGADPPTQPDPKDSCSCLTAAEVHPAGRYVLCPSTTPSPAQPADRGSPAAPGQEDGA", "experiment": "Inhibition of AXL (unknown origin)"}, "[3]": {"biological_target": "T2, Hepatocyte growth factor receptor (Homo sapiens, UniProt P08581)", "T2 sequence (P08581 whole entry)": "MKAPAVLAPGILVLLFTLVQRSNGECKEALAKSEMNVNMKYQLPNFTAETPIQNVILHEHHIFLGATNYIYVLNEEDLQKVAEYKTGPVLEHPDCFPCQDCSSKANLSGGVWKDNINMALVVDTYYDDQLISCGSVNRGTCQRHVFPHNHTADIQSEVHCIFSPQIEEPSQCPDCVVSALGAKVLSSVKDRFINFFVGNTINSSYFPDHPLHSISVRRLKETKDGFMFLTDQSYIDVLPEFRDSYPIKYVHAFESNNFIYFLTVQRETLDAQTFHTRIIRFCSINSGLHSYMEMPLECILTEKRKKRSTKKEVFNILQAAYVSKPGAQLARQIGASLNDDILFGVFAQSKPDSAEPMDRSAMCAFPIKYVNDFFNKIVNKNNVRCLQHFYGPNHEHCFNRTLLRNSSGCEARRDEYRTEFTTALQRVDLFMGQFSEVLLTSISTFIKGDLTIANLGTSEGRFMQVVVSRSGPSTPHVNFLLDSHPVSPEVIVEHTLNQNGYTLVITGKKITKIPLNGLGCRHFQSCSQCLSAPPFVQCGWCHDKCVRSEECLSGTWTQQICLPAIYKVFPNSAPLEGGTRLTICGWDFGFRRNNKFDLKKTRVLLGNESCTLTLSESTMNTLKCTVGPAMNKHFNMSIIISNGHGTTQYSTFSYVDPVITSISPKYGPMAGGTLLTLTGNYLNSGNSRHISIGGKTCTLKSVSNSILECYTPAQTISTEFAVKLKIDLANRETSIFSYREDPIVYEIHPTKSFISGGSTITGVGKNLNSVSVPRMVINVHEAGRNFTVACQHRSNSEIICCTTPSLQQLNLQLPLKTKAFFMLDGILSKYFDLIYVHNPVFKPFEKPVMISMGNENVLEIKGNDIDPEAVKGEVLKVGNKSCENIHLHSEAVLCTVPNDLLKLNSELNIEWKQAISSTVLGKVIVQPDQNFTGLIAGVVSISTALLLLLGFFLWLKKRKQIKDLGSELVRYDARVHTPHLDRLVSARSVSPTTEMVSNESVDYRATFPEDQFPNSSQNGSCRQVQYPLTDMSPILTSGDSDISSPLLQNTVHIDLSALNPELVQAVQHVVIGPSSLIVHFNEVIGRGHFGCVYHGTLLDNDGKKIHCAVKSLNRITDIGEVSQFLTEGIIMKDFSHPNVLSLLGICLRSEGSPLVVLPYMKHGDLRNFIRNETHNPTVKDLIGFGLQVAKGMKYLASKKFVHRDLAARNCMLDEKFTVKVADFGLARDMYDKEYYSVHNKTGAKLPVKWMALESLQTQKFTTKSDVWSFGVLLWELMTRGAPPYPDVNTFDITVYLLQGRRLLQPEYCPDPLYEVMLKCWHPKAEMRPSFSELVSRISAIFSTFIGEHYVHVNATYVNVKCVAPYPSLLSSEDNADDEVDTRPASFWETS", "description": "Inhibition of c-MET (unknown origin)"}, "[4]": {"biological_target": "T3, ALK tyrosine kinase receptor (Homo sapiens, UniProt Q9UM73)", "T3 sequence (Q9UM73 whole entry)": "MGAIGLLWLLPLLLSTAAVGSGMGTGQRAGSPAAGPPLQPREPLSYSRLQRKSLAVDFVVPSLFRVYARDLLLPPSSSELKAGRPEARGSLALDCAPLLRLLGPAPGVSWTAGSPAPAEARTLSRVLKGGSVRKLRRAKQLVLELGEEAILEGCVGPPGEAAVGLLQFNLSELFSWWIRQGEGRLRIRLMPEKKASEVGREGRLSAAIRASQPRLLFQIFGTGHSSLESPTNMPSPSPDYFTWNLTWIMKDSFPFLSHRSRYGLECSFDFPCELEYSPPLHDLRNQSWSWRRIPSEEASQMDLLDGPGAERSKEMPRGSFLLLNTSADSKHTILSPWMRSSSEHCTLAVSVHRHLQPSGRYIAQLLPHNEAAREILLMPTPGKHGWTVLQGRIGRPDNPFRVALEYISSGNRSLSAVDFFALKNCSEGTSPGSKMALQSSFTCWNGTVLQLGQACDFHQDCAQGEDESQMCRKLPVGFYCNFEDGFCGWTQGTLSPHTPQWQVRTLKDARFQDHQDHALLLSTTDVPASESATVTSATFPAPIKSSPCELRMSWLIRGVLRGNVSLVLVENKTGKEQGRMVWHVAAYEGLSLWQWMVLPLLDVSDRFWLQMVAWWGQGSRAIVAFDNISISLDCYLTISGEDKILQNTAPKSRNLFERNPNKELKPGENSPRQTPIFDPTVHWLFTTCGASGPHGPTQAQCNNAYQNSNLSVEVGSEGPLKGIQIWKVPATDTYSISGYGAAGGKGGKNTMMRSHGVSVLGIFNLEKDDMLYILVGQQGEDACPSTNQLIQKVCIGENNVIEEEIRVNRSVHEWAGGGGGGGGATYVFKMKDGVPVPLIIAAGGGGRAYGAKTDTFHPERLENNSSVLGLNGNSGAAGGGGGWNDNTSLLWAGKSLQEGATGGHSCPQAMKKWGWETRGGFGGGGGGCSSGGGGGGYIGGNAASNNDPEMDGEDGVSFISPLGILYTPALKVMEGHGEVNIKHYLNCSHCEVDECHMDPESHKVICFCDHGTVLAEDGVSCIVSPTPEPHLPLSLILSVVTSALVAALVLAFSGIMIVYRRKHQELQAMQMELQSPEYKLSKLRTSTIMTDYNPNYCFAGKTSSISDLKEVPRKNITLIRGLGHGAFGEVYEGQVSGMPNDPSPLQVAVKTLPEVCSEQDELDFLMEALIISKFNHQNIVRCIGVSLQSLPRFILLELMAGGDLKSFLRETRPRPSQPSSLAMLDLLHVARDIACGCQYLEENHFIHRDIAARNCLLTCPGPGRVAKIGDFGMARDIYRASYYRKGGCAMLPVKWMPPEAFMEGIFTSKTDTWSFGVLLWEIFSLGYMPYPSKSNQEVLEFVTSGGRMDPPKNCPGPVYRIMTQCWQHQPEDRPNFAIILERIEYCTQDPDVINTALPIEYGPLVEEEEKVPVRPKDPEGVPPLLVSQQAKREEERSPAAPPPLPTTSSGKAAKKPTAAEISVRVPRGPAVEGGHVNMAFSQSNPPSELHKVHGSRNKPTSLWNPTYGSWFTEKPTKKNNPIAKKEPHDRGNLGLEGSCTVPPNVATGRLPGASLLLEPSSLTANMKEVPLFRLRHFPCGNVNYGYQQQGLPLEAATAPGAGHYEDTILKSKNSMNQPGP", "experiment": "Inhibition of ALK (unknown origin)"}, "[5]": {"system": "A-431", "experiment": "Antiproliferative activity against human A-431 cells assessed as reduction in cell viability incubated for 24 hrs by MTT assay", "type": "functional, cell-based", "settings": "A-431, 24 h"}, "[6]": {"system": "NCI-H1975", "experiment": "Antiproliferative activity against human NCI-H1975 cells assessed as reduction in cell viability incubated for 48 hrs by MTT assay", "type": "functional, cell-based", "settings": "NCI-H1975, 48 h"}, "[7]": {"biological_target": "T2, Hepatocyte growth factor receptor", "experiment": "Inhibition of c-Met (unknown origin) by mobility shift assay"}, "[8]": {"biological_target": "Histone deacetylase 1 (Homo sapiens, UniProt Q13547)", "sequence (Q13547 whole entry)": "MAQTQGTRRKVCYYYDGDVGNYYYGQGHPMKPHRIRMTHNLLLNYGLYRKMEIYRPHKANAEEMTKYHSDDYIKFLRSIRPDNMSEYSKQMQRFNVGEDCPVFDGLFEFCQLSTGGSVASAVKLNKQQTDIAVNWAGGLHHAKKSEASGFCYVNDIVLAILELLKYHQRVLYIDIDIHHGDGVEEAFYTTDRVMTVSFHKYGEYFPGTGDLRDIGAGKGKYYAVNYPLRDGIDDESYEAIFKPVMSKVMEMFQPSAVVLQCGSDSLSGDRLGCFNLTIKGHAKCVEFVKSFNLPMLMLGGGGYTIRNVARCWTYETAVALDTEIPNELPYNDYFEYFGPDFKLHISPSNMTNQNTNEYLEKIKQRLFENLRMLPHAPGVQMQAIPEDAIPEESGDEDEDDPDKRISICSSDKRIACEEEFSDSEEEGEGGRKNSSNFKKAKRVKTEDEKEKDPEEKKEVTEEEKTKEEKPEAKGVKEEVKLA", "experiment": "Inhibition of HDAC1 (unknown origin) expressed in Sf9 cells using Z-Lys(Ac)-AMC as fluorogenic substrate preincubated for 60 mins followed by substrate addition and measured after 1 hr by fluorescence based microplate analysis"}, "[9]": {"system": "NCI-H322M", "experiment": "Antiproliferative activity against human NCI-H322M cells assessed as cell growth inhibition incubated for 72 hrs by MTT assay", "type": "functional, cell-based"}, "[10]": {"system": "A549", "experiment": "Antiproliferative activity against human A549 cells assessed as reduction in cell viability incubated for 24 hrs by MTT assay", "type": "functional, cell-based", "settings": "A549, 24 h"}, "[11]": {"system": "KB 3-1", "experiment": "Antiproliferative activity against human KB-3-1 cells assessed as cell growth inhibition", "type": "functional, cell-based"}, "[12]": {"system": "MDA-MB-231", "experiment": "Antiproliferative activity against human MDA-MB-231 cells assessed as reduction in cell viability by MTT assay", "type": "functional, cell-based"}, "[13]": {"system": "4T1", "experiment": "Antiproliferative activity against mouse 4T1 cells assessed as reduction in cell viability by MTT assay", "type": "functional, cell-based"}, "[14]": {"system": "BT-549", "experiment": "Antiproliferative activity against human BT-549 cells assessed as reduction in cell viability by MTT assay", "type": "functional, cell-based"}, "[15]": {"biological_target": "T3, ALK tyrosine kinase receptor", "description": "Inhibition of ALK (unknown origin) by TR-FRET assay"}}}
{"compound": "COCCN1CCN(C(=O)C#Cc2c(Oc3ccc(NC(=O)c4cn(C(C)C)c(=O)n(-c5ccc(F)cc5)c4=O)cc3F)ccnc2N)CC1", "values": [{"measurement": "IC50", "setting": "[1]", "result": "< 0.1", "unit": "µM"}]}
{"compound": "CC(C)n1cc(C(=O)Nc2ccc(Oc3ccnc4c3Oc3ccccc3N4)c(F)c2)c(=O)c(-c2ccc(F)cc2)c1", "values": [{"measurement": "IC50", "setting": "[2]", "result": 0.007, "unit": "µM"}]}
{"compound": "Nc1nccc(Oc2ccc(NC(=O)c3ccnn(-c4ccc(F)cc4)c3=O)cc2F)c1C#CCC1CCNCC1", "values": [{"measurement": "IC50", "setting": "[3]", "result": 0.01, "unit": "µM"}, {"measurement": "IC50", "setting": "[1]", "result": "< 0.1", "unit": "µM"}]}
{"compound": "CN1CCc2ccc(COCC3Cc4cn5ncnc(-c6cnn(C7CCNCC7)c6)c5c4C3)cc21", "note": "(configuration not stated)", "values": [{"measurement": "IC50", "setting": "[4]", "result": 0.0203, "unit": "µM"}, {"measurement": "IC50", "setting": "[5]", "result": 0.749, "unit": "µM"}, {"measurement": "IC50", "setting": "[6]", "result": 0.0843, "unit": "µM"}]}
{"compound": "Cc1nc(Cn2cc(C(=O)Nc3ccc(Oc4ccnc(N)c4C#CCC4CCN(C)CC4)c(F)c3)c(=O)n(-c3ccc(F)cc3)c2=O)cs1", "values": [{"measurement": "IC50", "setting": "[1]", "result": "< 0.1", "unit": "µM"}]}
{"compound": "Nc1ccccc1NC(=O)c1ccc(OCCCOc2ccc3c(OCCn4nc(-c5cn[nH]c5)ccc4=O)ccnc3c2)cn1", "values": [{"measurement": "IC50", "setting": "[7]", "result": 0.00071, "unit": "µM"}, {"measurement": "IC50", "setting": "[8]", "result": 0.038, "unit": "µM"}]}
{"compound": "COCCN1CCN(C(=O)C#Cc2c(Oc3ccc(NC(=O)c4ccnn(-c5ccc(F)cc5)c4=O)cc3F)ccnc2N)CC1", "values": [{"measurement": "IC50", "setting": "[1]", "result": "< 0.1", "unit": "µM"}]}
{"compound": "CC(C)n1cc(C(=O)Nc2ccc(Oc3ccnc(N)c3C#CC(=O)N3CCNCC3)c(F)c2)c(=O)n(-c2ccc(F)cc2)c1=O", "values": [{"measurement": "IC50", "setting": "[1]", "result": "< 0.1", "unit": "µM"}]}
{"compound": "COc1cc2nccc(Oc3ccc(Nc4nccc5ccn(-c6ccc(Br)cc6)c(=O)c45)cc3F)c2cc1OC", "values": [{"measurement": "IC50", "setting": "[2]", "result": "> 1", "unit": "µM"}]}
{"compound": "COc1cc2nccc(Oc3ccc(Nc4nccc5ccn(-c6ccc(C)cc6)c(=O)c45)cc3F)c2cc1OC", "values": [{"measurement": "IC50", "setting": "[2]", "result": 0.0172, "unit": "µM"}]}
{"compound": "c1ccc2oc(COCC3Cc4cn5ncnc(-c6cnn(C7CCNCC7)c6)c5c4C3)cc2c1", "note": "(configuration not stated)", "values": [{"measurement": "IC50", "setting": "[5]", "result": "> 1", "unit": "µM"}, {"measurement": "IC50", "setting": "[6]", "result": 0.06, "unit": "µM"}]}
{"compound": "N#CC1=C(N)OC2=C(c3sc(N)c(C#N)c3CC2)C1c1ccccc1", "note": "(configuration not stated)", "values": [{"measurement": "IC50", "setting": "[3]", "result": 0.00832, "unit": "µM"}]}
{"compound": "Fc1ccc(Cl)c(COCC2Cc3cn4ncnc(-c5cnn(C6CCNCC6)c5)c4c3C2)c1Cl", "note": "(configuration not stated)", "values": [{"measurement": "IC50", "setting": "[4]", "result": 0.00024, "unit": "µM"}, {"measurement": "IC50", "setting": "[5]", "result": 0.1, "unit": "µM"}, {"measurement": "IC50", "setting": "[6]", "result": 0.00621, "unit": "µM"}]}
{"compound": "COCCN1CCN(C(C)(C)C#Cc2c(Oc3ccc(NC(=O)c4cn(C(C)C)c(=O)n(-c5ccc(F)cc5)c4=O)cc3F)ccnc2N)CC1", "values": [{"measurement": "IC50", "setting": "[1]", "result": "< 0.1", "unit": "µM"}]}
{"compound": "C/C=C(/C=O)[C@@H](CC=O)CC(=O)OCCc1ccc(O)cc1", "note": "[(-)-OLEOCANTHAL]", "values": [{"measurement": "IC50", "setting": "[9]", "result": 26.3, "unit": "µM"}, {"measurement": "IC50", "setting": "[10]", "result": 10, "unit": "µM"}]}
{"compound": "COc1cc2c(c(OC)c1OC)-c1ccc(OC)c(=O)cc1[C@@H](NC(C)=O)CC2", "note": "[COLCHICINE]", "values": [{"measurement": "IC50", "setting": "[11]", "result": 1.9, "unit": "µM"}]}
{"compound": "COc1cc2nc(N3CCN(C(=O)C4COc5ccccc5O4)CC3)nc(N)c2cc1OC", "note": "(configuration not stated) [DOXAZOSIN]", "values": [{"measurement": "IC50", "setting": "[12]", "result": 23.9, "unit": "µM"}, {"measurement": "IC50", "setting": "[13]", "result": 7.73, "unit": "µM"}, {"measurement": "IC50", "setting": "[14]", "result": 24.8, "unit": "µM"}]}
{"compound": "COc1cccc2c1C(=O)c1c(O)c3c(c(O)c1C2=O)C[C@@](O)(C(=O)CO)C[C@@H]3O[C@H]1C[C@H](N)[C@H](O)[C@H](C)O1", "note": "[DOXORUBICIN]", "values": [{"measurement": "IC50", "setting": "[11]", "result": 0.006, "unit": "µM"}]}
{"compound": "COc1cc(N2CCNC[C@@H]2C)ncc1-c1cnc(N)c(O[C@H](C)c2c(Cl)ccc(F)c2Cl)c1", "note": "[ENVONALKIB]", "values": [{"measurement": "IC50", "setting": "[15]", "result": 0.0143, "unit": "µM"}]}
{"compound": "COCCNCc1ccc(-c2cc3nccc(Oc4ccc(NC(=S)NC(=O)Cc5ccc(F)cc5)cc4F)c3s2)nc1", "note": "[GLESATINIB]", "values": [{"measurement": "IC50", "setting": "[11]", "result": 0.004, "unit": "µM"}]}
{"compound": "Cc1c(C(=O)Nc2ccc(Oc3ccnc4cc(OCC(C)(C)O)ccc34)c(F)c2)c(=O)n(-c2ccccc2)n1C", "note": "[NINGETINIB]", "values": [{"measurement": "IC50", "setting": "[3]", "result": 0.0334, "unit": "µM"}]}
{"compound": "CC(=O)O[C@H]1C(=O)[C@@]2(C)[C@H]([C@H](OC(=O)c3ccccc3)[C@]3(O)C[C@H](OC(=O)[C@H](O)[C@@H](NC(=O)c4ccccc4)c4ccccc4)C(C)=C1C3(C)C)[C@]1(OC(C)=O)CO[C@@H]1C[C@@H]2O", "note": "[PACLITAXEL]", "values": [{"measurement": "IC50", "setting": "[11]", "result": 0.029, "unit": "µM"}]}
